Reference: US9221838B2, “Inhibitors of AKT activity” (ALMAC DISCOVERY LIMITED, priority 2009, dated 2015)

How the values were obtained:
Type in all cases: biochemical
AKT3 = biological target: T1, AKT3 (Homo sapiens, UniProt Q9Y243); assay: AKT Kinase Assay (IMAP fluorescent polarisation) vs AKT3
T1 construct: purchased SignalChem
Outline: (§1)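 Phosphorylation of FAM-Crosstide detected by IMAP binding and fluorescence polarisation (485/528 nm), with IC50 fitted from % inhibition versus vehicle. Compound was incubated 45 min with enzyme, then reacted 1 h at room temperature with ATP and peptide in Tris/MgCl2/DTT buffer. Dose response had fourteen half-log points.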

AKT1 = biological target: T2, AKT1 (Homo sapiens, UniProt P31749); assay: AKT Kinase Assay (IMAP fluorescent polarisation) vs AKT1
T2 construct: purchased SignalChem
T2 sequence (P31749 whole entry): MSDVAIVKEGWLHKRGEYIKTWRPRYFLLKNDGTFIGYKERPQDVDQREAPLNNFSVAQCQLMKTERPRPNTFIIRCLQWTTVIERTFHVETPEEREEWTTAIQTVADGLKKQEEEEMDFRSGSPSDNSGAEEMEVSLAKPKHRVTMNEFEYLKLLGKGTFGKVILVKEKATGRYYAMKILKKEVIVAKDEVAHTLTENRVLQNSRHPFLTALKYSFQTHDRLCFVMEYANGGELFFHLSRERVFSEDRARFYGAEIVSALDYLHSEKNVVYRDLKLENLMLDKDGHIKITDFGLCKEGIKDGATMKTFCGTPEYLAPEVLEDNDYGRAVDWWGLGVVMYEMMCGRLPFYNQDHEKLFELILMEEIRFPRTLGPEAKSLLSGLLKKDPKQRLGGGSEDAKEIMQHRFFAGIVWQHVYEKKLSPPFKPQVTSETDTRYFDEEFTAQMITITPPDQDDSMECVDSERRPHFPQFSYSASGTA
Outline: as §1

AKT2 = biological target: T3, AKT2 (Homo sapiens, UniProt P31751); assay: AKT Kinase Assay (IMAP fluorescent polarisation) vs AKT2
T3 construct: purchased SignalChem
T3 sequence (P31751 whole entry): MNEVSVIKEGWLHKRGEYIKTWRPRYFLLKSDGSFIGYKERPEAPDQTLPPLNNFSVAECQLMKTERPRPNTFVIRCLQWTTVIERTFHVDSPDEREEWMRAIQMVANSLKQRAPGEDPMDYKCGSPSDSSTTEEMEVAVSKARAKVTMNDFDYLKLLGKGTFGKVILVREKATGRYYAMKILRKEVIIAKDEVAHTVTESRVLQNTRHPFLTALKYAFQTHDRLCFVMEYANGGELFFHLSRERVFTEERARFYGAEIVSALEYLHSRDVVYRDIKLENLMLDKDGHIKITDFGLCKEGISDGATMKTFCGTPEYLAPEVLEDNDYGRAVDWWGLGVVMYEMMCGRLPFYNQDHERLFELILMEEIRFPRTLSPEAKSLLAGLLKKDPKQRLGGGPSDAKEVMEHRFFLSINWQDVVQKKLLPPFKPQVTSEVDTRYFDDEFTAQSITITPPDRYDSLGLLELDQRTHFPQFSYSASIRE
Outline: as §1

T1 sequence (Q9Y243 whole entry): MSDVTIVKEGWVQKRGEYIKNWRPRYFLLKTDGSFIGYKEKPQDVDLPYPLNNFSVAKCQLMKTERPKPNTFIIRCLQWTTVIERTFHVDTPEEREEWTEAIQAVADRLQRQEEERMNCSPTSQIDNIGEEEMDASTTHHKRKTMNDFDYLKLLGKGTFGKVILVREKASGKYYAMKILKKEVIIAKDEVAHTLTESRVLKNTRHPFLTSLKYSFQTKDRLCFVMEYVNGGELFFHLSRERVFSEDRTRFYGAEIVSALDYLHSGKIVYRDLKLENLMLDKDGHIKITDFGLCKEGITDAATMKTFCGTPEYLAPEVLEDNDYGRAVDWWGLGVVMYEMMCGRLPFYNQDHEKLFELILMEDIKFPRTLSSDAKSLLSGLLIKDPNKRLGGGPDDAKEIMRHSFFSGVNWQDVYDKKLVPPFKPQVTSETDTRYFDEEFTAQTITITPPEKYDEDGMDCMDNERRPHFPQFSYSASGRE

Row | SMILES | IC50 (AKT3) | IC50 (AKT1) | IC50 (AKT2)
1 | NC1(c2ccc(-c3nc4c(cc3-c3ccccc3)N(Cc3cccnc3)C(=O)CO4)cc2)CCC1 [Example 46, 6-(4-(1-aminocyclobutyl)phenyl)-7-phenyl-1-(pyridin-3-ylmethyl)-1H-pyrido[2,3-b][1,4]oxazin-2(3H)-one] | 100 to 1000 nM | 100 to 1000 nM | 100 to 1000 nM
2 | CC(C)CN1C(=O)COc2nc(-c3ccc(C4(N)CCC4)cc3)c(-c3ccccc3)cc21 [Example 102, 6-(4-(1-aminocyclobutyl)phenyl)-1-isobutyl-7-phenyl-1H-pyrido[2,3-b][1,4]oxazin-2(3H)-one] | 1000 to 10000 nM | 100 to 1000 nM | ≤ 100 nM
3 | NC1(c2ccc(-c3nc4c(cc3-c3ccccc3)N(CC(F)(F)F)C(=O)CO4)cc2)CCC1 [Example 60, 6-(4-(1-aminocyclobutyl)phenyl)-7-phenyl-1-(2,2,2-trifluoroethyl)-1H-pyrido[2,3-b][1,4]oxazin-2(3H)-one] | 1000 to 10000 nM | 100 to 1000 nM | ≤ 100 nM
4 | Cc1nnc2n1-c1cc(-c3ccccc3)c(-c3ccc(C4(N)CCC4)cc3)nc1OC2 [Example 63, 1-(4-(1-methyl-8-phenyl-4H-pyrido[2,3-b][1,2,4]triazolo[4,3-d][1,4]oxazin-7-yl)phenyl)cyclobutanamine] | > 10000 nM | 100 to 1000 nM | 1000 to 10000 nM
5 | CN1CC(=O)Nc2cc(-c3ccccc3)c(-c3ccc(C4(N)CCC4)cc3)nc21 [Example 72, 6-(4-(1-aminocyclobutyl)phenyl)-4-methyl-7-phenyl-3,4-dihydropyrido[2,3-b]pyrazin-2(1H)-one] | > 10000 nM | 100 to 1000 nM | 1000 to 10000 nM
6 | Cn1cnc(-c2nnc3n2CCc2nc(-c4ccc(C5(N)CCC5)cc4)c(-c4ccccc4)cc2-3)c1 [Example 29, 1-(4-(3-(1-methyl-1H-imidazol-4-yl)-9-phenyl-5,6-dihydro-[1,2,4]triazolo[3,4-f][1,6]naphthyridin-8-yl)phenyl)cyclobutanamine] | > 10000 nM | ≤ 100 nM | 100 to 1000 nM
7 | NC1(c2ccc(-c3nc4c(cc3-c3ccccc3)N(c3cccnc3)CCO4)cc2)CCC1 [Example 91, 1-(4-(7-phenyl-1-(pyridin-3-yl)-2,3-dihydro-1H-pyrido[2,3-b][1,4]oxazin-6-yl)phenyl)cyclobutanamine] | 1000 to 10000 nM | 100 to 1000 nM | ≤ 100 nM
8 | NC1(c2ccc(-c3nc4c(cc3-c3ccccc3)N(Cc3ccccn3)C(=O)CO4)cc2)CCC1 [Example 56, 6-(4-(1-aminocyclobutyl)phenyl)-7-phenyl-1-(pyridin-2-ylmethyl)-1H-pyrido[2,3-b][1,4]oxazin-2(3H)-one] | 100 to 1000 nM | 100 to 1000 nM | 100 to 1000 nM
9 | CC1Oc2nc(-c3ccc(C4(N)CCC4)cc3)c(-c3ccccc3)cc2NC1=O (stereo not drawn) [Example 80, 6-(4-(1-aminocyclobutyl)phenyl)-3-methyl-7-phenyl-1H-pyrido[2,3-b][1,4]oxazin-2(3H)-one] | > 10000 nM | 100 to 1000 nM | 100 to 1000 nM
10 | Cc1nc2c(n1O)CCc1nc(-c3ccc(C4(N)CCC4)cc3)c(-c3ccccc3)cc1-2 [Example 14, 7-(4-(1-aminocyclobutyl)phenyl)-2-methyl-8-phenyl-4,5-dihydro-3H-imidazo[4,5-f]quinolin-3-ol] | 1000 to 10000 nM | 100 to 1000 nM | 1000 to 10000 nM
11 | NC1(c2ccc(-c3nc4c(cc3-c3ccccc3)NC(=O)CCN4)cc2)CCC1 [Example 104, 7-(4-(1-aminocyclobutyl)phenyl)-8-phenyl-4,5-dihydro-1H-pyrido[2,3-b][1,4]diazepin-2(3H)-one] | > 10000 nM | 100 to 1000 nM | 1000 to 10000 nM
12 | CS(=O)(=O)c1[nH]nc2c1CCc1nc(-c3ccc(C4(N)CCC4)cc3)c(-c3ccccc3)cc1-2 [Example 10, 1-(4-(3-(methylsulfonyl)-8-phenyl-4,5-dihydro-2H-pyrazolo[3,4-f]quinolin-7-yl)phenyl)cyclobutanamine] | > 10000 nM | 100 to 1000 nM | 1000 to 10000 nM
13 | CN1CCOc2nc(-c3ccc(C4(N)CCC4)cc3)c(-c3ccccc3)cc21 [Example 40, 1-(4-(1-methyl-7-phenyl-2,3-dihydro-1H-pyrido[2,3-b][1,4]oxazin-6-yl)phenyl)cyclobutanamine] | > 10000 nM | 100 to 1000 nM | 1000 to 10000 nM
14 | NC1(c2ccc(-c3nc4c(cc3-c3ccccc3)-n3cnnc3CO4)cc2)CCC1 [Example 39, 1-(4-(8-phenyl-4H-pyrido[2,3-b][1,2,4]triazolo[4,3-d][1,4]oxazin-7-yl)phenyl)cyclobutanamine] | > 10000 nM | 100 to 1000 nM | 1000 to 10000 nM
15 | N#CCCN1C(=O)COc2nc(-c3ccc(C4(N)CCC4)cc3)c(-c3ccccc3)cc21 [Example 62, 3-(6-(4-(1-aminocyclobutyl)phenyl)-2-oxo-7-phenyl-2,3-dihydro-1H-Pyrido[2,3-b][1,4]oxazin-1-yl)propanenitrile] | 1000 to 10000 nM | 1000 to 10000 nM | 100 to 1000 nM

Continued, values first:

Row | IC50 (AKT3) | IC50 (AKT1) | IC50 (AKT2) | SMILES
16 | > 10000 nM | 1000 to 10000 nM | 1000 to 10000 nM | NCc1ccc(-c2nc3c(cc2-c2ccccc2)N(CC2CC2)C(=O)CO3)cc1 [Example 153, 6-(4-(Aminomethyl)phenyl)-1-(cyclopropylmethyl)-7-phenyl-1H-pyrido[2,3-b][1,4]oxazin-2(3H)-one]
17 | > 10000 nM | 1000 to 10000 nM | > 10000 nM | NC1(c2ccc(-c3nc4c(cc3-c3ccccc3)C(=O)COC4)cc2)CCC1 [Example 127, 2-(4-(1-aminocyclobutyl)phenyl)-3-phenyl-6,8-dihydro-5H-pyrano[3,4-b]pyridin-5-one]
18 | 1000 to 10000 nM | 100 to 1000 nM | 1000 to 10000 nM | CCc1nnc2n1-c1cc(-c3ccccc3)c(-c3ccc([C@]4(N)C[C@@H](O)C4)cc3)nc1OC2 [Example 136, (1s,3s)-3-Amino-3-(4-(1-ethyl-8-phenyl-4H-pyrido[2,3-b][1,2,4]triazolo[4,3-d][1,4]oxazin-7-yl)phenyl)cyclobutanol]
19 | 100 to 1000 nM | 100 to 1000 nM | ≤ 100 nM | C[C@]1(O)C[C@@](N)(c2ccc(-c3nc4c(cc3-c3ccccc3)N(CC3CC3)C(=O)CO4)cc2)C1 [Example 144, 6-(4-((1r,3r)-1-amino-3-hydroxy-3-methylcyclobutyl)phenyl)-1-(cyclopropylmethyl)-7-phenyl-1H-pyrido[2,3-b][1,4]oxazin-2(3H)-one]
20 | 1000 to 10000 nM | ≤ 100 nM | 100 to 1000 nM | CCc1nnc2n1-c1cc(-c3ccccc3)c(-c3ccc([C@]4(N)C[C@](C)(O)C4)cc3)nc1OC2 [Example 138, (1r,3r)-3-amino-3-(4-(1-ethyl-8-phenyl-4H-pyrido[2,3-b][1,2,4]triazolo[4,3-d][1,4]oxazin-7-yl)phenyl)-1-methylcyclobutanol]
21 | 100 to 1000 nM | ≤ 100 nM | ≤ 100 nM | CCN1C(=O)COc2nc(-c3ccc([C@]4(N)C[C@](C)(O)C4)cc3)c(-c3ccccc3)cc21 [Example 143, 6-(4-((1r,3r)-1-amino-3-hydroxy-3-methylcyclobutyl)phenyl)-1-ethyl-7-phenyl-1H-pyrido[2,3-b][1,4]oxazin-2(3H)-one]
22 | 100 to 1000 nM | ≤ 100 nM | ≤ 100 nM | C[C@]1(O)C[C@@](N)(c2ccc(-c3nc4c(cc3-c3ccccc3)N(CCF)C(=O)CO4)cc2)C1 [Example 145, 6-(4-((1r,3r)-1-amino-3-hydroxy-3-methylcyclobutyl)phenyl)-1-(2-fluoroethyl)-7-phenyl-1H-pyrido[2,3-b][1,4]oxazin-2(3H)-one]
